For one test, the target named is T1, HiBit-BRM fusion protein (Homo sapiens, UniProt P51531).
T1 construct: expressed in transfected cells
Kind of test: HiBiT-BRM cell-based degradation assay (Nano-Glo HiBiT Lytic Detection, 24 h). To be noted: HeLa cell line expressing HiBiT-BRM; for DC50: read-out: BRM HiBit Degradation IC50. An outline of the steps:
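Stable HiBiT-BRM HeLa line; 24 h compound exposure, top final 30 μM, 3-fold, 10 pts in duplicate. Lytic HiBiT/LgBiT luminescence readout. % degradation vs DMSO (0%) and 2 μM known BRM/BRG1 degrader (100%).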
(HiBiT is a short tag that completes a luciferase, so light tracks the accessible tagged protein.)

For test [1], the target named is T2, HiBit-BRG1 fusion protein (Homo sapiens, UniProt P51532).
T2 construct: expressed in transfected cells
Kind of test: HiBiT-BRG1 cell-based degradation assay (Nano-Glo HiBiT Lytic Detection, 24 h). To be noted: HeLa cell line expressing HiBit-BRG1 and LgBit; for Dmax: read-out: BRG1 HiBit Degradation Maximum (%); for DC50: read-out: BRMG1 HiBit Degradation IC50. An outline of the steps: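 HeLa cells stably expressing HiBit-BRG1 plus LgBit; compound exposure 24 h; Nano-Glo HiBiT lytic luminescence; % degradation vs DMSO (0%) and 2 μM standard BRM/BRG1 degrader (100%).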

SMILES strings stand for the structures.

T2 sequence (P51532 whole entry, the tested form may be a part): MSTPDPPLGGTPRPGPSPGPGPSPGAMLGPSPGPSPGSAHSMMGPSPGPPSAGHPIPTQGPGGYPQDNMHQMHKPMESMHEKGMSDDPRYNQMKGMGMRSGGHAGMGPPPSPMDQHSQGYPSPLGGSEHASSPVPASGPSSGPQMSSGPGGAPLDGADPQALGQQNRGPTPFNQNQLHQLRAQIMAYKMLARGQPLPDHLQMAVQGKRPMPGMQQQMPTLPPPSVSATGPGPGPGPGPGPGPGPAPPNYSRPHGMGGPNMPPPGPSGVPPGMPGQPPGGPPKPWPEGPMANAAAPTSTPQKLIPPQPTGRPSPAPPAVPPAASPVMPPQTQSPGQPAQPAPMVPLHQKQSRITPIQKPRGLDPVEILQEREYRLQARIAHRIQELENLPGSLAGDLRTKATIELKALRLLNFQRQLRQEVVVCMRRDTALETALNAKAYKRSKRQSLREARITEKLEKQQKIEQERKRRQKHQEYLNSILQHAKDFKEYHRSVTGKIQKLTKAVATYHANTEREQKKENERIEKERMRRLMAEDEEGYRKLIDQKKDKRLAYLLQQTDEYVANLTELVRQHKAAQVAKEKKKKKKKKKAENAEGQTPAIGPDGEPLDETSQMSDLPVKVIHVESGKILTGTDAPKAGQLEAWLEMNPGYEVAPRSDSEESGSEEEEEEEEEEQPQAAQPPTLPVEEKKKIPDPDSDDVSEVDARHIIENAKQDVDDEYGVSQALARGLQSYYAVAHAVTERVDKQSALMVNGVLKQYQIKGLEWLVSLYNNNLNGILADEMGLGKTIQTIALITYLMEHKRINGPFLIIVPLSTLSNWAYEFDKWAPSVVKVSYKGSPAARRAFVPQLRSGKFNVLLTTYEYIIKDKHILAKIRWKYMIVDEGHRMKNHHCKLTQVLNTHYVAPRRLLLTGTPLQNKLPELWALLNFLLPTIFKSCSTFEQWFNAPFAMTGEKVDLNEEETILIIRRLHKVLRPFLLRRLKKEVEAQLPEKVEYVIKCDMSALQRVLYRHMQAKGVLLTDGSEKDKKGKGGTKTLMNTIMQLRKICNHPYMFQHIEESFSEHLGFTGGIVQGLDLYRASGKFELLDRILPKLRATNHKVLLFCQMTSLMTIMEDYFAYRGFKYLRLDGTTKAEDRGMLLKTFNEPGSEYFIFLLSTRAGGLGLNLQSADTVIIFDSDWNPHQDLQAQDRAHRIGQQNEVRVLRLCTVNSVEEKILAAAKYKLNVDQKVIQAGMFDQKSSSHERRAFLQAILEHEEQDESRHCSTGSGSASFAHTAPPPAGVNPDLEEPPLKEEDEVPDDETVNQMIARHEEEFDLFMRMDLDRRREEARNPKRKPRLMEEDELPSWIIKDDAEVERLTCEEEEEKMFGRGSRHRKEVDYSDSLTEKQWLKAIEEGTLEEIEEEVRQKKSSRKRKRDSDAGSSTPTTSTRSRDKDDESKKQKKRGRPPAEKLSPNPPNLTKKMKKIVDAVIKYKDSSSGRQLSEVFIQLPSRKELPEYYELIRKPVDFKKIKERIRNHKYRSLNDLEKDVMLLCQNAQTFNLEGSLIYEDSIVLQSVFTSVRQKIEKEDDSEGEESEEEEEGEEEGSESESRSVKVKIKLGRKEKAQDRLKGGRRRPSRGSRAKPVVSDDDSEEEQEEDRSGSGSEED
T1 sequence (P51531 whole entry, the tested form may be a part): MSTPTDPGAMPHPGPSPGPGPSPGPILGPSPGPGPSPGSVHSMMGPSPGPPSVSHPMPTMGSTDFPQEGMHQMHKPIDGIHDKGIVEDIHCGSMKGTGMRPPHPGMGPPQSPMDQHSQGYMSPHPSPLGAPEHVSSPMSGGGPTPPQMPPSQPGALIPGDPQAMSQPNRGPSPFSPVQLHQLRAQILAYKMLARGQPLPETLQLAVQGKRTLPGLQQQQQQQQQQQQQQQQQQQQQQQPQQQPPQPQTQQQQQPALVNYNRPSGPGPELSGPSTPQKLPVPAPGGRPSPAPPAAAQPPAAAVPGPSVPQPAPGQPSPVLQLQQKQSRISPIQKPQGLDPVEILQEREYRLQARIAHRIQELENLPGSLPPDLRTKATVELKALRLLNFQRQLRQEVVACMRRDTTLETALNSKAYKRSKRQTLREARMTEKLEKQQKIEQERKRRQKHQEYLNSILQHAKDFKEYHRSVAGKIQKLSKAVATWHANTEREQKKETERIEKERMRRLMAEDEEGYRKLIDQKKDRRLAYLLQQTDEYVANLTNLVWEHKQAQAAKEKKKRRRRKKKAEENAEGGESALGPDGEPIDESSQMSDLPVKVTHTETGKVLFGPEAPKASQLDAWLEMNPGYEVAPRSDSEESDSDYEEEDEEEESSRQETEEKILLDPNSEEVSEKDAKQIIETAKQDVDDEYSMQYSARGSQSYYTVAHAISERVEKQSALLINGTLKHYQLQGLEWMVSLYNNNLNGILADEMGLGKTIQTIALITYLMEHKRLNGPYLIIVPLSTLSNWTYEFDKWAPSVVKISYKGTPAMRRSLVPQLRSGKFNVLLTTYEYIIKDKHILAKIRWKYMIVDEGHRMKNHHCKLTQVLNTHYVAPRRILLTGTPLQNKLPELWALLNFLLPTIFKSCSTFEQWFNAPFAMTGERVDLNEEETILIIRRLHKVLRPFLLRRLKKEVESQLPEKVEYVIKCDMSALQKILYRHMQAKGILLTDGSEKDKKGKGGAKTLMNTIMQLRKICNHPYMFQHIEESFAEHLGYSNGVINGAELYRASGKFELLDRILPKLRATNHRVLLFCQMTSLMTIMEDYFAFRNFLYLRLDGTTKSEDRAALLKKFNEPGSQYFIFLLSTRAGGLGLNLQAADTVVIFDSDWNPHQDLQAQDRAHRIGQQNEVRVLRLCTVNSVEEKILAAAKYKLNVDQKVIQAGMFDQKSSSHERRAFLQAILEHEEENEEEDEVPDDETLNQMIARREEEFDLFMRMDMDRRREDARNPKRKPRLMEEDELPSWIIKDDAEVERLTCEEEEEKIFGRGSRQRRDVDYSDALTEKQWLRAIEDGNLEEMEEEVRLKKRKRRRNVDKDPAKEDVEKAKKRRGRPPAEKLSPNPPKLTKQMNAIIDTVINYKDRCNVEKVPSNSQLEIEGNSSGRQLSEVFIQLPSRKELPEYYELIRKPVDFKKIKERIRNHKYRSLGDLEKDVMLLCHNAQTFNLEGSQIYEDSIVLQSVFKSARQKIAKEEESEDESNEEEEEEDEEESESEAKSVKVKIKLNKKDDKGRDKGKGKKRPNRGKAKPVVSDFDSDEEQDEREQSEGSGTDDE

For `Cc1ncsc1-c1ccc([C@H](C)NC(=O)[C@@H]2C[C@@H](O)CN2C(=O)[C@@H](c2cc(N3CCC(C(=O)N4CCc5[nH]c6nnc(-c7ccccc7O)cc6c5C4)CC3)no2)C(C)C)cc1` (racemic) [Compound 187, (2S,4R)-4-hydroxy-1-((R)-2-(3-(4-(3-(2-hydroxyphenyl)-6,7,8,9-tetrahydro-5H-pyrido[3′,4′:4,5]pyrrolo[2,3-c]pyridazine-6-carbonyl)piperidin-1-yl)isoxazol-5-yl)-3-methylbutanoyl)-N-((S)-1-(4-(4-methylthiazol-5-yl)phenyl)ethyl)pyrrolidine-2-carboxamide], on HiBit-BRM fusion protein, the “BRM HiBit Degradation Maximum (%)” value is “A (“A” indicates maximum degradation ≥ 75%)” and the DC50 was more than 0.01 µM. The Dmax in test [1] is less than 50%.

As to `Cc1ncsc1-c1ccc([C@H](C)NC(=O)[C@@H]2C[C@@H](O)CN2C(=O)[C@H](c2cc(C3CN(C(=O)c4cc5cc(-c6ccccc6O)nnc5[nH]4)C3)no2)C(C)C)cc1` (single isomer, unassigned) [Compound 176], the “BRM HiBit Degradation Maximum (%)” value at HiBit-BRM fusion protein is reported as “C (“C” indicates maximum degradation < 50%)”. For the same compound, the Dmax in test [1] was less than 50%.

Regarding `Cc1ncsc1-c1ccc([C@H](C)NC(=O)[C@@H]2C[C@@H](O)CN2C(=O)[C@@H](c2cc(OCC(=O)N[C@@H]3CCc4[nH]c5nnc(-c6ccccc6O)cc5c4C3)no2)C(C)C)cc1` [Compound 150, (2S,4R)-4-hydroxy-1-((R)-2-(3-(2-(((R)-3-(2-hydroxyphenyl)-6,7,8,9-tetrahydro-5H-pyridazino[3,4-b]indol-6-yl)amino)-2-oxoethoxy)isoxazol-5-yl)-3-methylbutanoyl)-N-((S)-1-(4-(4-methylthiazol-5-yl)phenyl)ethyl)pyrrolidine-2-carboxamide], on HiBit-BRM fusion protein, the “BRM HiBit Degradation Maximum (%)” value is “A (“A” indicates maximum degradation ≥ 75%)” and the DC50 was more than 0.01 µM. Besides, in test [1], the Dmax was more than 50% and the DC50 was more than 0.1 µM.

For the compound `Cc1ncsc1-c1ccc(CNC(=O)[C@@H]2C[C@@H](O)CN2C(=O)[C@@H](NC(=O)CCCCCCCCCCCCCCC(=O)N2CC(c3c[nH]c4nnc(-c5ccccc5O)cc34)C2)C(C)(C)C)cc1` [Compound 41, (2S,4R)-4-hydroxy-1-((S)-2-(16-(3-(3-(2-hydroxyphenyl)-7H-pyrrolo[2,3-c]pyridazin-5-yl)azetidin-1-yl)-16-oxohexadecanamido)-3,3-dimethylbutanoyl)-N-(4-(4-methylthiazol-5-yl)benzyl)pyrrolidine-2-carboxamide], the “BRM HiBit Degradation Maximum (%)” value on HiBit-BRM fusion protein is on record as “C (“C” indicates maximum degradation < 50%)”. Also, the Dmax in test [1] was less than 50%.

Regarding `Cc1ncsc1-c1ccc([C@H](C)NC(=O)[C@@H]2C[C@@H](O)CN2C(=O)[C@@H](c2cc(OCCN3C[C@@H]4[C@H](C3)[C@H]4c3[nH]c4nnc(-c5ccccc5O)cc4c3C)no2)C(C)C)cc1` [Compound 272, (2S,4R)-4-hydroxy-1-((R)-2-(3-(2-((1R,5S,6R)-6-(3-(2-hydroxyphenyl)-5-methyl-7H-pyrrolo[2,3-c]pyridazin-6-yl)-3-azabicyclo[3.1.0]hexan-3-yl)ethoxy)isoxazol-5-yl)-3-methylbutanoyl)-N-((S)-1-(4-(4-methylthiazol-5-yl)phenyl)ethyl)pyrrolidine-2-carboxamide], at HiBit-BRM fusion protein, the “BRM HiBit Degradation Maximum (%)” value is “A (“A” indicates maximum degradation ≥ 75%)” and the DC50 was less than 0.01 µM. In addition, in test [1], the Dmax was more than 75% and the DC50 was more than 0.01 µM.

As to `Cc1ncsc1-c1ccc([C@H](C)NC(=O)[C@@H]2C[C@@H](O)CN2C(=O)[C@@H](c2cc(OCCN3CC[C@@H](c4[nH]c5nnc(-c6ccccc6O)cc5c4C)C3)no2)C(C)C)cc1` (racemic) [Compound 259, (2S,4R)-4-hydroxy-1-((R)-2-(3-(2-((R)-3-(3-(2-hydroxyphenyl)-5-methyl-7H-pyrrolo[2,3-c]pyridazin-6-yl)pyrrolidin-1-yl)ethoxy)isoxazol-5-yl)-3-methylbutanoyl)-N-((S)-1-(4-(4-methylthiazol-5-yl)phenyl)ethyl)pyrrolidine-2-carboxamide], on HiBit-BRM fusion protein, the “BRM HiBit Degradation Maximum (%)” value is recorded as “A (“A” indicates maximum degradation ≥ 75%)” and the DC50 is less than 0.01 µM. For the same compound, in test [1], the Dmax was more than 75% and the DC50 is more than 0.01 µM.

Consider `Cc1ncsc1-c1ccc([C@H](C)NC(=O)[C@@H]2C[C@@H](O)CN2C(=O)C(c2cc(OCC(=O)N[C@]3(C(=O)O)CCc4[nH]c5nnc(-c6ccccc6O)cc5c4C3)no2)C(C)C)cc1` (single isomer, unassigned) [Compound 89], for which the “BRM HiBit Degradation Maximum (%)” value on HiBit-BRM fusion protein is given as “C (“C” indicates maximum degradation < 50%)”. Further, the Dmax in test [1] was less than 50%.

Consider `Cc1ncsc1C12CC(CNC(=O)[C@@H]3C[C@@H](O)CN3C(=O)[C@@H](c3cc(OCCN4CC(c5cc6cc(-c7ccccc7O)nnc6[nH]5)C4)no3)C(C)C)(C1)C2` (single isomer, unassigned) [Compound 115], for which the “BRM HiBit Degradation Maximum (%)” value on HiBit-BRM fusion protein was “C (“C” indicates maximum degradation < 50%)”. Also, the Dmax in test [1] is less than 50%.

On to `Cc1ncsc1-c1ccc([C@H](C)NC(=O)[C@@H]2C[C@@H](O)CN2C(=O)[C@@H](c2cc(OCCN3CCC(N4CC(c5cc6cc(-c7ccccc7O)nnc6[nH]5)C4)CC3)no2)C(C)C)cc1` (racemic) [Compound 48, (2S,4R)-4-hydroxy-1-((R)-2-(3-(2-(4-(3-(3-(2-hydroxyphenyl)-7H-pyrrolo[2,3-c]pyridazin-6-yl)azetidin-1-yl)piperidin-1-yl)ethoxy)isoxazol-5-yl)-3-methylbutanoyl)-N-((S)-1-(4-(4-methylthiazol-5-yl)phenyl)ethyl)pyrrolidine-2-carboxamide], for which, at HiBit-BRM fusion protein, the “BRM HiBit Degradation Maximum (%)” value was “A (“A” indicates maximum degradation ≥ 75%)” and the DC50 is more than 0.01 µM. For the same compound, the Dmax in test [1] is less than 50%.

Consider `Cc1ncsc1-c1ccc([C@H](C)NC(=O)[C@@H]2C[C@@H](O)CN2C(=O)[C@@H](c2cc(OCCN3CC(Cc4cc5cc(-c6ccccc6O)nnc5[nH]4)C3)no2)C(C)C)cc1` (racemic) [Compound 294, (2S,4R)-4-hydroxy-1-((R)-2-(3-(2-(3-((3-(2-hydroxyphenyl)-7H-pyrrolo[2,3-c]pyridazin-6-yl)methyl)azetidin-1-yl)ethoxy)isoxazol-5-yl)-3-methylbutanoyl)-N-((S)-1-(4-(4-methylthiazol-5-yl)phenyl)ethyl)pyrrolidine-2-carboxamide], for which, on HiBit-BRM fusion protein, the “BRM HiBit Degradation Maximum (%)” value was “A (“A” indicates maximum degradation ≥ 75%)” and the DC50 is more than 0.1 µM. The Dmax in test [1] is less than 50%.

As to `O=C1CCC(N2C(=O)c3ccc(N4CCN(CCC(=O)N5CC(c6cc7cc(-c8ccccc8O)nnc7[nH]6)C5)CC4)cc3C2=O)C(=O)N1` (stereo not shown) [Compound 26, 2-(2,6-dioxopiperidin-3-yl)-5-(4-(3-(3-(3-(2-hydroxyphenyl)-7H-pyrrolo[2,3-c]pyridazin-6-yl)azetidin-1-yl)-3-oxopropyl)piperazin-1-yl)isoindoline-1,3-dione], the “BRM HiBit Degradation Maximum (%)” value on HiBit-BRM fusion protein is reported as “C (“C” indicates maximum degradation < 50%)”. In addition, in test [1], the Dmax was less than 50%.

These data come from patent US20240024488A1, “COMPOUNDS AND USES THEREOF” (Foghorn Therapeutics Inc., priority 2020, published 2024).
